The record followed here is the supplement of paper PMC10331698.

Common to all, as to assay: level (log10 ratio to DMSO vehicle control); higher = higher biomarker level / cell amount than vehicle control
Holding throughout (conditions): in DMSO

Compound in assay [1]: O=S(=O)(O)C(F)(F)C(F)(F)C(F)(F)C(F)(F)C(F)(F)C(F)(F)C(F)(F)C(F)(F)F [Potassium perfluorooctanesulfonate]
As to the method:
(§1)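 BioMAP Diversity Plus panel of 12 human primary cell co-culture systems (3C, 4H, LPS, SAg, BT, BF4T, BE3C, CASM3C, HDF3CGF, KF3CT, MyoF, Mphg). Compounds were added 1 h before stimulation and left for 24 h (MyoF 48 h; BT 72 h for soluble read-outs or 6 d for IgG). Biomarkers were read by ELISA, cytotoxicity by SRB, PBMC viability and proliferation by Alamar Blue. Each well value was divided by the mean of 8 DMSO control wells on the same plate and log10 transformed; duplicate blinded samples were tested at 4 concentrations.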

Compound in assay [2]: CNS(=O)(=O)C(F)(F)C(F)(F)C(F)(F)C(F)(F)C(F)(F)C(F)(F)C(F)(F)C(F)(F)F [N-Methylperfluorooctanesulfonamide]
The protocol:
as §1

Compound in assay [3]: CC(C)(C)C(=O)CC(=O)C(F)(F)C(F)(F)C(F)(F)F [(Heptafluorobutanoyl)pivaloylmethane]
The protocol:
as §1

Compound in assay [4]: O=S(=O)(O)C(F)(F)C(F)(F)C(F)(F)C(F)(F)C(F)(F)C(F)(F)C(F)(F)C(F)(F)F [Perfluorooctanesulfonic acid]
The protocol:
as §1

Compound in assay [5]: O=C(O)CCC(F)(F)C(F)(F)C(F)(F)C(F)(F)C(F)(F)F [2H,2H,3H,3H-Perfluorooctanoic acid]
The protocol:
as §1

Compound in a further assay: O=C(O)C(F)(F)C(F)(F)C(F)(F)C(F)(F)C(F)(F)F [Perfluorohexanoic acid]
The protocol: as §1

± gives the standard deviation of the averaged measurements.

For LPS:CD106/VCAM-1, the “level (log10)” value was 0.0025 ± 0.019 in assay [1] (6700 nM); -0.004 ± 0.016 in assay [1] (20000 nM); -0.0125 ± 0.04 in assay [1] (60000 nM); -0.013 ± 0.038 in assay [2] (6700 nM); 0.0295 ± 0.018 in assay [2] (20000 nM); 0.03 ± 0.027 in assay [2] (60000 nM). In addition, the “level (log10)” value was -0.0315 ± 0.047 in assay [3] (6700 nM); -0.042 ± 0.017 in assay [3] (20000 nM); -0.021 ± 0.034 in assay [3] (60000 nM); -0.009 ± 0.0085 in assay [4] (6700 nM); -0.017 ± 0.011 in assay [4] (20000 nM); -0.023 ± 0.027 in assay [4] (60000 nM). Besides, the “level (log10)” value in assay [5] (6700 nM) is 0.006 ± 0.023; in assay [5] (20000 nM), 0.018 ± 0.033; in assay [5] (60000 nM) it was -0.016 ± 0.082; in the assay with Perfluorohexanoic acid (6700 nM), -0.0025 ± 0.0035; with Perfluorohexanoic acid (20000 nM) it was -0.0055 ± 0.0035; in the assay with Perfluorohexanoic acid (60000 nM), 0.008 ± 0.0042.

For the test system LPS:CD141/Thrombomodulin, the “level (log10)” value is -0.0225 ± 0.028 in assay [1] (6700 nM); -0.0215 ± 0.023 in assay [1] (20000 nM); -0.025 ± 0.044 in assay [1] (60000 nM); 0.005 ± 0.0028 in assay [2] (6700 nM); 0.0475 ± 0.0092 in assay [2] (20000 nM); 0.056 ± 0.0014 in assay [2] (60000 nM). In addition, the “level (log10)” value is -0.013 ± 0.037 in assay [3] (6700 nM); -0.0095 ± 0.042 in assay [3] (20000 nM); 0.0325 ± 0.0021 in assay [3] (60000 nM); -0.03 ± 0.0014 in assay [4] (6700 nM); -0.01 ± 0.0071 in assay [4] (20000 nM); -0.036 ± 0.031 in assay [4] (60000 nM). The “level (log10)” value in assay [5] (6700 nM) worked out at 0.0745 ± 0.043; in assay [5] (20000 nM) it was 0.048 ± 0.089; in assay [5] (60000 nM), 0.009 ± 0.088; with Perfluorohexanoic acid (6700 nM) it was 0.0085 ± 0.012; with Perfluorohexanoic acid (20000 nM), 0.0065 ± 0.026; in the assay with Perfluorohexanoic acid (60000 nM), 0.007 ± 0.017.

Take LPS:CD142/Tissue Factor: the “level (log10)” value was -0.0095 ± 0.019 in assay [1] (6700 nM); -0.004 ± 0.0028 in assay [1] (20000 nM); -0.002 in assay [1] (60000 nM); -0.0275 ± 0.016 in assay [2] (6700 nM); -0.0395 ± 0.016 in assay [2] (20000 nM); -0.074 ± 0.018 in assay [2] (60000 nM). In addition, the “level (log10)” value in assay [3] (6700 nM) was 0.0055 ± 0.012; in assay [3] (20000 nM), 0.0385 ± 0.018; in assay [3] (60000 nM), 0.034 ± 0.0057; in assay [4] (6700 nM), -0.0135 ± 0.00071; in assay [4] (20000 nM), -0.0265 ± 0.019; in assay [4] (60000 nM), -0.0105 ± 0.0092. Moreover, the “level (log10)” value in assay [5] (6700 nM) worked out at 0.0725 ± 0.018; in assay [5] (20000 nM) it was 0.063 ± 0.0028; in assay [5] (60000 nM), 0.0265 ± 0.037; with Perfluorohexanoic acid (6700 nM), 0.0205 ± 0.021; in the assay with Perfluorohexanoic acid (20000 nM), 0.0045 ± 0.011; in the assay with Perfluorohexanoic acid (60000 nM), 0.015 ± 0.0071.

Take LPS:CXCL8/IL-8: the “level (log10)” value in assay [1] (6700 nM) is 0.0255 ± 0.067; in assay [1] (20000 nM) it was 0.0435 ± 0.0092; in assay [1] (60000 nM), 0.061 ± 0.05; in assay [2] (6700 nM), -0.007 ± 0.0085; in assay [2] (20000 nM), -0.003 ± 0.016; in assay [2] (60000 nM), -0.0025 ± 0.019. Besides, the “level (log10)” value in assay [3] (6700 nM) is -0.019 ± 0.0099; in assay [3] (20000 nM), 0.015 ± 0.0057; in assay [3] (60000 nM) it was 0.0265 ± 0.013; in assay [4] (6700 nM), -0.0005 ± 0.011; in assay [4] (20000 nM), 0.015 ± 0.02; in assay [4] (60000 nM), 0.0235 ± 0.046. For the same test system, the “level (log10)” value in assay [5] (6700 nM) was 0.054 ± 0.034; in assay [5] (20000 nM), 0.0715 ± 0.09; in assay [5] (60000 nM), 0.121 ± 0.11; with Perfluorohexanoic acid (6700 nM), 0.0035 ± 0.016; with Perfluorohexanoic acid (20000 nM), 0.011 ± 0.0028; with Perfluorohexanoic acid (60000 nM), 0.0575 ± 0.0035.

As for LPS:IL-1alpha, the “level (log10)” value in assay [1] (6700 nM) was -0.022 ± 0.0014; in assay [1] (20000 nM) it was -0.0195 ± 0.011; in assay [1] (60000 nM), -0.0145 ± 0.012; in assay [2] (6700 nM) it was 0.0405 ± 0.071; in assay [2] (20000 nM), 0.107 ± 0.067; in assay [2] (60000 nM), 0.124 ± 0.078. The “level (log10)” value was 0.0285 ± 0.00071 in assay [3] (6700 nM); 0.0365 ± 0.0021 in assay [3] (20000 nM); 0.0745 ± 0.026 in assay [3] (60000 nM); 0.0245 ± 0.043 in assay [4] (6700 nM); 0.023 ± 0.04 in assay [4] (20000 nM); 0.0215 ± 0.0021 in assay [4] (60000 nM). Moreover, the “level (log10)” value is 0.0025 ± 0.00071 in assay [5] (6700 nM); 0.029 ± 0.035 in assay [5] (20000 nM); 0.0415 ± 0.00071 in assay [5] (60000 nM); 0.0135 ± 0.0064 with Perfluorohexanoic acid (6700 nM); 0.0145 ± 0.0092 with Perfluorohexanoic acid (20000 nM); -0.003 ± 0.02 in the assay with Perfluorohexanoic acid (60000 nM).

For the test system LPS:M-CSF, the “level (log10)” value in assay [1] (6700 nM) was -0.0215 ± 0.016; in assay [1] (20000 nM), 0 ± 0.024; in assay [1] (60000 nM) it was 0.008 ± 0.014; in assay [2] (6700 nM) it was -0.038 ± 0.018; in assay [2] (20000 nM) it was -0.0125 ± 0.011; in assay [2] (60000 nM), -0.017 ± 0.013. Further, the “level (log10)” value was -0.004 ± 0.018 in assay [3] (6700 nM); 0 ± 0.0085 in assay [3] (20000 nM); -0.0125 ± 0.052 in assay [3] (60000 nM); -0.022 ± 0.011 in assay [4] (6700 nM); 0 ± 0.031 in assay [4] (20000 nM); 0.008 ± 0.017 in assay [4] (60000 nM). The “level (log10)” value was -0.0035 ± 0.0035 in assay [5] (6700 nM); 0.008 ± 0.014 in assay [5] (20000 nM); 0.0035 ± 0.03 in assay [5] (60000 nM); 0.002 ± 0.0099 with Perfluorohexanoic acid (6700 nM); -0.0125 ± 0.015 with Perfluorohexanoic acid (20000 nM); -0.0055 ± 0.025 with Perfluorohexanoic acid (60000 nM).

Take LPS:SRB: the “level (log10)” value in assay [1] (6700 nM) is -0.009 ± 0.018; in assay [1] (20000 nM), -0.007 ± 0.021; in assay [1] (60000 nM), -0.001 ± 0.0057; in assay [2] (6700 nM), -0.0005 ± 0.00071; in assay [2] (20000 nM), -0.03 ± 0.0042; in assay [2] (60000 nM), -0.0625 ± 0.039. Also, the “level (log10)” value was -0.006 in assay [3] (6700 nM); -0.0095 ± 0.0021 in assay [3] (20000 nM); -0.028 ± 0.0099 in assay [3] (60000 nM); -0.003 ± 0.0085 in assay [4] (6700 nM); -0.003 ± 0.0028 in assay [4] (20000 nM); 0 in assay [4] (60000 nM). For the same test system, the “level (log10)” value is -0.01 ± 0.0014 in assay [5] (6700 nM); -0.0115 ± 0.0035 in assay [5] (20000 nM); -0.0035 ± 0.0064 in assay [5] (60000 nM); -0.013 ± 0.0071 with Perfluorohexanoic acid (6700 nM); -0.009 with Perfluorohexanoic acid (20000 nM); -0.0065 ± 0.0078 with Perfluorohexanoic acid (60000 nM).
